Results reported in patent US20230079819A1, “COMPOUNDS AND USES THEREOF” (Foghorn Therapeutics Inc., priority 2019, published 2023).

Experiments:
BRM = biological target: T1, BRM (Homo sapiens, UniProt P51531); test: ATPase catalytic activity of BRM, ADP-Glo in vitro biochemical assay; settings: ATPase catalytic activity, 30 nM BRM, 400 μM ATP, read-out: BRM IP50 (μM)*
T1 construct: made in house; host or cells: High Five insect cells

BRG-1 = biological target: T2, BRG-1 (Homo sapiens, UniProt P51532); test: ATPase catalytic activity of BRG-1, ADP-Glo in vitro biochemical assay; settings: ATPase catalytic activity, 30 nM BRG-1, 400 μM ATP, read-out: BRG1 IP50 (μM)*
T2 construct: made in house; host or cells: High Five insect cells
T2 sequence (P51532 whole entry): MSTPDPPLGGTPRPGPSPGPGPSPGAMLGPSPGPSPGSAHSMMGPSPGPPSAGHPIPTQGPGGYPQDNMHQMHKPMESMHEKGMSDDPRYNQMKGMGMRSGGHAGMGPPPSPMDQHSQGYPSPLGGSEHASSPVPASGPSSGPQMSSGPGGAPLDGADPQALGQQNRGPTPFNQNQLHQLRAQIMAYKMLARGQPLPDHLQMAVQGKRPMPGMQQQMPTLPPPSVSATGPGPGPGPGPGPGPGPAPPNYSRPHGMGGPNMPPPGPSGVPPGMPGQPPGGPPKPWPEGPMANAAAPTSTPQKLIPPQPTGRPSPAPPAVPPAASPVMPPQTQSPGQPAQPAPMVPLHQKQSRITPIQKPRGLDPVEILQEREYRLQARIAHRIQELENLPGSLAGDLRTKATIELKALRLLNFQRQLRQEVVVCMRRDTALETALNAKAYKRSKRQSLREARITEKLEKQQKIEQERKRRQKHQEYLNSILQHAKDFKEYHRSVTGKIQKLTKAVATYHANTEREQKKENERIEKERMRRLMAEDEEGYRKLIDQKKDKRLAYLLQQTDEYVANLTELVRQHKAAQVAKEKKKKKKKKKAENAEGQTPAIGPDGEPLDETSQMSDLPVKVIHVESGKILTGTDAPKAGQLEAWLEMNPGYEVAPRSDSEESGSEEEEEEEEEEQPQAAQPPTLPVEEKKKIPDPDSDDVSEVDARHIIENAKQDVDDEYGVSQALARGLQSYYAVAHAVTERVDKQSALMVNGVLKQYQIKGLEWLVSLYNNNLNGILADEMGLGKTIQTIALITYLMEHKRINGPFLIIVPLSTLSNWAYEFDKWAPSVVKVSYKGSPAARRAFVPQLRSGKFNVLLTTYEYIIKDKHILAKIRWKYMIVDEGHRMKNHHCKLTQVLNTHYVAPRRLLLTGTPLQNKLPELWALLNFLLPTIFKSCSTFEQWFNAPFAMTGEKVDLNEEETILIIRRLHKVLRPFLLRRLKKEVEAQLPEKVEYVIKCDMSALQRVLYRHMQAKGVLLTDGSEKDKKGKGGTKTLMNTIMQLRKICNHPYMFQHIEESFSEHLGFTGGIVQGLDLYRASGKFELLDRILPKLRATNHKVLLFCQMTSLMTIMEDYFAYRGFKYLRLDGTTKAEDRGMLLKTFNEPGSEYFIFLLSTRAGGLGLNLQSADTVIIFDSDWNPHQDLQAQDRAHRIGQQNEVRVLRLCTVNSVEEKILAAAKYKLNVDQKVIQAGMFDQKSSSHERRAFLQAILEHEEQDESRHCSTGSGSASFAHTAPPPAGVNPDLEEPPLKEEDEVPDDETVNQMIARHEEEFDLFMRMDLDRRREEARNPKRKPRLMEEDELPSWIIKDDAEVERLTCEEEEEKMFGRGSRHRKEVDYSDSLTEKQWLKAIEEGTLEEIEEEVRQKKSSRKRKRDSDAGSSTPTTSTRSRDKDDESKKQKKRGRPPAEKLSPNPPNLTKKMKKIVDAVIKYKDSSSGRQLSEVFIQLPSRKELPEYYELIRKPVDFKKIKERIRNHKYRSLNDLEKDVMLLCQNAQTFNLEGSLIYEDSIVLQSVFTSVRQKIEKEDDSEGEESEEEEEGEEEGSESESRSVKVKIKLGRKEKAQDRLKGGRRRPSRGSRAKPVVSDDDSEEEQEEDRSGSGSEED

T1 sequence (P51531 whole entry): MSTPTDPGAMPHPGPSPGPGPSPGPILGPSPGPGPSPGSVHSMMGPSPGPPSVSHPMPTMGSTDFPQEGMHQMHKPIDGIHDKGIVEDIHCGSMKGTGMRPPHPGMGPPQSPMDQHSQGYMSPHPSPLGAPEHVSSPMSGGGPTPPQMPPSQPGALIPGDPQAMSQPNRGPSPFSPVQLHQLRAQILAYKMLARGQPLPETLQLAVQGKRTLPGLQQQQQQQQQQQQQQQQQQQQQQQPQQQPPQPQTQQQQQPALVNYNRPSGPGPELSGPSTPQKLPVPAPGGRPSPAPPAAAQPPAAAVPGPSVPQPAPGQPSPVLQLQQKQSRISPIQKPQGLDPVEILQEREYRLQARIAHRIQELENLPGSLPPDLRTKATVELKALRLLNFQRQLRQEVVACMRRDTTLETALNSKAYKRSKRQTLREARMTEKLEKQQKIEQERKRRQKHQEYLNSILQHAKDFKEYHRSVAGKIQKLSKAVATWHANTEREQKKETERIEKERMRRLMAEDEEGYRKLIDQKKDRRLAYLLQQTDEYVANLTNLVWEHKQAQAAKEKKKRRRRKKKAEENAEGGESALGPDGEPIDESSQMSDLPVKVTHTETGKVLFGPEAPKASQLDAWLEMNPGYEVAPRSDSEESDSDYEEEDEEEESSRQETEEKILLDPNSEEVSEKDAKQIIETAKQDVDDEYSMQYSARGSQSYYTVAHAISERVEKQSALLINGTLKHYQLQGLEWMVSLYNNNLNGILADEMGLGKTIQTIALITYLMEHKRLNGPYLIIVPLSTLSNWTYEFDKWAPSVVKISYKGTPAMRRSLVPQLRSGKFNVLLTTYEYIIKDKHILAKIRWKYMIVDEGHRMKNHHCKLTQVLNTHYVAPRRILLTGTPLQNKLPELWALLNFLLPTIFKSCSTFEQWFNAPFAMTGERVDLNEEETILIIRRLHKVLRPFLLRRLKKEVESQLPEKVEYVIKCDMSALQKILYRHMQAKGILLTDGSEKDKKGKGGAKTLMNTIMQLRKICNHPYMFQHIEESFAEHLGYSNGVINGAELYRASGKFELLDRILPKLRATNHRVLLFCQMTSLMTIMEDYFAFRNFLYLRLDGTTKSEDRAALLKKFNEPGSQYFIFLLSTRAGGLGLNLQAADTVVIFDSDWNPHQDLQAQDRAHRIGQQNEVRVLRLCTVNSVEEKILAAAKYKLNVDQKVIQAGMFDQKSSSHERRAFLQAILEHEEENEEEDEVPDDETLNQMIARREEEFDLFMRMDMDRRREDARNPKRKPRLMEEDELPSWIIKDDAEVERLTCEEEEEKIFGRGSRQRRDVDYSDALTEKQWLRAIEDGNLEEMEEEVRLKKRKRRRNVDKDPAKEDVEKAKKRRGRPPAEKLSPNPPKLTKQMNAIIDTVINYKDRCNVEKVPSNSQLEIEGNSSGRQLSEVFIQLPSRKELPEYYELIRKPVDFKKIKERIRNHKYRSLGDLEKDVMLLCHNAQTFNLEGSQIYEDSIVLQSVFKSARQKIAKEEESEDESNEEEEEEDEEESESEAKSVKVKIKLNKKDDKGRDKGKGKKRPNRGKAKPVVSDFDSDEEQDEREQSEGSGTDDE

Row | Compound | IC50 (BRM) [µM] | IC50 (BRG-1) [µM]
1 | CS(=O)(=O)n1ccc(C(=O)NCC(=O)Nc2nc(-c3cccc(N4CCC(F)(F)C4)c3)cs2)c1 [Compound 225] | > 0.01 | > 0.01
2 | CO[C@@H]1CCN(c2cccc(-c3csc(NC(=O)CNC(=O)c4ccn(S(C)(=O)=O)c4)n3)c2)C1 [Compound 226] | < 0.01 | > 0.01
3 | CS(=O)(=O)n1ccc(C(=O)NCC(=O)Nc2nc(-c3cccc(N4CC(N5CCOCC5)C4)c3)cs2)c1 [Compound 227] | > 0.01 | > 0.01
4 | CCS(=O)(=O)n1ccc(C(=O)NCC(=O)Nc2nc(-c3cccc(N4C[C@@H](C)O[C@@H](C)C4)c3)cs2)c1 [Compound 228] | < 0.01 | > 0.01
5 | C[C@@H]1CN(c2cccc(-c3csc(NC(=O)CNC(=O)c4ccn(C5COC5)c4)n3)c2)C[C@H](C)O1 [Compound 229] | > 0.1 | > 0.1
6 | CS(=O)(=O)n1ccc(C(=O)NCC(=O)Nc2nc(-c3cccc(N4CC5CC(C4)O5)c3)cs2)c1 [Compound 230] | > 0.01 | > 0.1
7 | CS(=O)(=O)n1ccc(C(=O)NCC(=O)Nc2nc(-c3cccc(N4CCCC4)c3)cs2)c1 [Compound 231] | > 0.01 | > 0.01
8 | C[C@H]1CCCN(c2cccc(-c3csc(NC(=O)CNC(=O)c4ccn(S(C)(=O)=O)c4)n3)c2)C1 [Compound 232] | > 0.01 | > 0.01
9 | CS(=O)(=O)n1ccc(C(=O)NCC(=O)Nc2nc(-c3cccc(N4CCC4)c3)cs2)c1 [Compound 233] | < 0.01 | > 0.01
10 | Cn1ncc2c1CCN(c1cccc(-c3csc(NC(=O)CNC(=O)c4ccn(S(C)(=O)=O)c4)n3)c1)C2 [Compound 234] | > 0.01 | > 0.01
11 | C[C@@H]1CN(c2cccc(-c3csc(NC(=O)CNC(=O)c4ccn(C5(C)COC5)c4)n3)c2)C[C@H](C)O1 [Compound 235] | > 0.01 | > 0.01
12 | CC[C@H]1CN(c2cccc(-c3csc(NC(=O)CNC(=O)c4ccn(S(C)(=O)=O)c4)n3)c2)CCO1 [Compound 236] | > 0.01 | > 0.01
13 | CC[C@@H]1CN(c2cccc(-c3csc(NC(=O)CNC(=O)c4ccn(S(C)(=O)=O)c4)n3)c2)CCO1 [Compound 237] | > 0.01 | > 0.01
14 | C[C@@H]1CCCN(c2cccc(-c3csc(NC(=O)CNC(=O)c4ccn(S(C)(=O)=O)c4)n3)c2)C1 [Compound 238] | > 0.01 | > 0.01
15 | C[C@@H]1COCCN1c1cccc(-c2csc(NC(=O)CNC(=O)c3ccn(S(C)(=O)=O)c3)n2)c1 [Compound 239] | > 0.01 | > 0.01
16 | CS(=O)(=O)n1ccc(C(=O)NCC(=O)Nc2nc(-c3cccc(N4CCC(F)(F)CC4)c3)cs2)c1 [Compound 241] | > 0.01 | > 0.1
17 | CS(=O)(=O)n1ccc(C(=O)NCC(=O)Nc2nc(-c3cccc(N4CCCCC4)c3)cs2)c1 [Compound 242] | > 0.01 | > 0.01
18 | CC1(O)CCN(c2cccc(-c3csc(NC(=O)CNC(=O)c4ccn(S(C)(=O)=O)c4)n3)c2)CC1 [Compound 243] | > 0.01 | > 0.1
19 | COC[C@@H]1CCCN(c2cccc(-c3csc(NC(=O)CNC(=O)c4ccn(S(C)(=O)=O)c4)n3)c2)C1 [Compound 244] | > 0.01 | > 0.01
20 | CC(C)(C)n1ccc(C(=O)NCC(=O)Nc2nc(-c3cccc(N4CC5(COC5)C4)c3)cs2)c1 [Compound 245] | > 0.01 | > 0.01
21 | COC1CN(c2cccc(-c3csc(NC(=O)CNC(=O)c4ccn(S(C)(=O)=O)c4)n3)c2)C1 [Compound 246] | < 0.01 | > 0.01
22 | Cc1cccc(-c2csc(NC(=O)CNC(=O)c3ccn(S(C)(=O)=O)c3)n2)c1 [Compound 247] | > 0.01 | > 0.01

Now from value to compound:

Row | IC50 (BRM) [µM] | IC50 (BRG-1) [µM] | Compound
23 | > 0.01 | > 0.01 | CS(=O)(=O)n1ccc(C(=O)NCC(=O)Nc2nc(-c3cccc(C(F)F)c3)cs2)c1 [Compound 248]
24 | > 0.01 | > 0.01 | CC1Cc2ccc(-c3csc(NC(=O)CNC(=O)c4ccn(S(C)(=O)=O)c4)n3)cc2O1 (stereo not drawn) [Compound 249]
25 | > 0.01 | > 0.01 | COCCN1CCc2ccc(-c3csc(NC(=O)CNC(=O)c4ccn(S(C)(=O)=O)c4)n3)cc21 [Compound 250]
26 | > 0.01 | > 0.01 | CO[C@H]1C[C@H](Oc2cccc(-c3csc(NC(=O)CNC(=O)c4ccn(S(C)(=O)=O)c4)n3)c2)C1 [Compound 252]
27 | > 0.01 | > 0.01 | CS(=O)(=O)n1ccc(C(=O)NCC(=O)Nc2nc(-c3cc(F)c4ccoc4c3)cs2)c1 [Compound 253]
28 | > 0.01 | > 0.01 | CO[C@H]1C[C@@H](Oc2cccc(-c3csc(NC(=O)CNC(=O)c4ccn(S(C)(=O)=O)c4)n3)c2)C1 [Compound 254]
29 | < 0.01 | < 0.01 | CS(=O)(=O)n1ccc(C(=O)NCC(=O)Nc2nc(-c3cc(F)c4c(c3)OCC4)cs2)c1 [Compound 255]
30 | > 0.01 | > 0.01 | CS(=O)(=O)n1ccc(C(=O)NCC(=O)Nc2nc(-c3cccc(C4(F)CCC4)c3)cs2)c1 [Compound 256]
31 | > 0.01 | > 0.01 | CO[C@]1(C)CCCN(c2cccc(-c3csc(NC(=O)CNC(=O)c4ccn(S(C)(=O)=O)c4)n3)c2)C1 [Compound 257]
32 | > 0.01 | > 0.01 | CO[C@@]1(C)CCCN(c2cccc(-c3csc(NC(=O)CNC(=O)c4ccn(S(C)(=O)=O)c4)n3)c2)C1 [Compound 258]
33 | > 0.01 | > 0.01 | CN1CCOCc2ccc(-c3csc(NC(=O)CNC(=O)c4ccn(S(C)(=O)=O)c4)n3)cc21 [Compound 259]
34 | > 0.01 | > 0.01 | CS(=O)(=O)n1ccc(C(=O)NCC(=O)Nc2nc(-c3cc(Cl)cc(OC4CC4)c3)cs2)c1 [Compound 260]
35 | < 0.01 | < 0.01 | Cn1ncc(-c2cccc(-c3csc(NC(=O)CNC(=O)c4ccn(S(C)(=O)=O)c4)n3)c2)n1 [Compound 261]
36 | > 0.01 | > 0.01 | COc1ccncc1-c1cccc(-c2csc(NC(=O)CNC(=O)c3ccn(C4(C)COC4)c3)n2)n1 [Compound 262, N-[2-[[4-[6-(4-methoxy-3-pyridyl)-2-pyridyl]thiazol-2-yl]amino]-2-oxo-ethyl]-1-(3-methyloxetan-3-yl)pyrrole-3-carboxamide]
37 | > 0.01 | > 0.01 | CN1CCc2ccc(-c3csc(NC(=O)CNC(=O)c4ccn(C(C)(C)C)c4)n3)cc21 [Compound 263]
38 | > 0.01 | > 0.01 | CS(=O)(=O)n1ccc(C(=O)NCC(=O)Nc2nc(-c3ccc4c(c3F)OCC4)cs2)c1 [Compound 264]
39 | > 0.01 | > 0.01 | CS(=O)(=O)n1ccc(C(=O)NCC(=O)Nc2nc(-c3cccc(OC4CC4)c3)cs2)c1 [Compound 265]
40 | > 0.01 | > 0.01 | CS(=O)(=O)n1ccc(C(=O)NCC(=O)Nc2nc(-c3cccc(OCF)c3)cs2)c1 [Compound 266]
41 | > 0.1 | > 0.1 | C[C@@H]1CN(c2cc(-c3csc(NC(=O)CNC(=O)c4ccn(S(C)(=O)=O)c4)n3)cc(C3CC3)c2)C[C@H](C)O1 [Compound 267]
42 | > 0.01 | > 0.1 | C[C@@H]1CN(c2cccc(-c3csc(NC(=O)CNC(=O)c4ccn(C5(C)COC5)c4)n3)c2F)C[C@H](C)O1 [Compound 268]
